Source: patent US20130029928A1 (priority 2010, published 2013)
Read-outs that look alike come from different tables or passages of the source.

Assay: Phase I study CXR1002-001: plasma pharmacokinetics (LC-MS/MS)
Format: in vivo, human
Conditions: human, plasma, oral; for concentration at 168 h: 168 hr (Day 8)
From the text: PK samples, PD (fasting) samples, blood glucose, and blood triglyceride samples, were taken over a 6-week period.
Dose limiting toxicity (DLT) will be based on the toxicity assessments over the first 3-week period of the repeat dosing schedule. PK samples (single blood sample) were taken on the following basis: • Every 6 weeks during the repeat dosing phase • If dosing is interrupted or stopped, samples will be taken at intervals according to patient convenience • PK sampling for safety evaluation may take place at any time, as clinically indicated
Plasma samples were collected after the single 50 mg dose at the following timepoints: Pre-dose, and then 0.25, 0.5, 0.75, 1, 1.5, 2, 3, 4, 6, 24, 48, and 72 hours after administration and then once weekly at weeks 2, 3, 4, 5, and 6 (days 8, 15, 22, 29, and 36). For patients treated with the weekly repeat dose, plasma samples were collected at the following timepoints: Pre-dose and then 2, 3, 4 and 24 hours after administration for a total of 6 weeks. Thereafter a single sample was collected every 6 weeks for monitoring of exposure during long term treatment. Plasma samples were processed at site and stored at −80° C. prior to batch shipment to the analytical laboratory.

[1] = 50 mg, Patient 004 Dose 50 mg, read-out: Concentration
[2] = 100 mg, Patient 005 Dose 100 mg, read-out: Concentration

## O=C(O)C(F)(F)C(F)(F)C(F)(F)C(F)(F)C(F)(F)C(F)(F)C(F)(F)F [CXR1002]
50 mg, Patient 003 Dose 50 mg, 0.5 hr
  concentration at 0.5 h: 11.3 µM
50 mg, Patient 003 Dose 50 mg, 0.75 hr
  concentration at 0.75 h: 17.1 µM
50 mg, Patient 003 Dose 50 mg, 1 hr
  concentration at 1 h: 20.7 µM
50 mg, Patient 003 Dose 50 mg, 1.5 hr
  concentration at 1.5 h: 24.6 µM
50 mg, Patient 003 Dose 50 mg, 2 hr, read-out: Concentration
  concentration at 2 h: 24.5 µM
50 mg, Patient 003 Dose 50 mg, read-out: Concentration
  concentration at 3 h: 21.2 µM
50 mg, Patient 003 Dose 50 mg, 4 hr, read-out: Concentration
  concentration at 4 h: 18 µM
50 mg, Patient 003 Dose 50 mg, 24 hr, read-out: Concentration
  concentration at 24 h: 19.5 µM
50 mg, Patient 003 Dose 50 mg, 48 hr
  concentration at 48 h: 18.1 µM
50 mg, Patient 003 Dose 50 mg, 72 hr
  concentration at 72 h: 18.4 µM
50 mg, Patient 003 Dose 50 mg, 192 hr (Day 8), read-out: Concentration
  concentration at 192 h: 8.6 µM
50 mg, Patient 003 Dose 50 mg, 360 hr (Day 15), read-out: Concentration
  concentration at 360 h: 7.2 µM
50 mg, Patient 003 Dose 50 mg, 528 hr (Day 22), read-out: Concentration
  concentration at 528 h: 6.5 µM
50 mg, Patient 003 Dose 50 mg, 696 hr (Day 29), read-out: Concentration
  concentration at 696 h: 5 µM
50 mg, Patient 003 Dose 50 mg, 864 hr (Day 36), read-out: Concentration
  concentration at 864 h: 6.5 µM
50 mg, Patient 004 Dose 50 mg, 0 hr
  concentration at 0 hr: 100 nM
50 mg, Patient 004 Dose 50 mg, 2 hr, read-out: Concentration
  concentration at 2 hr: 19.9 µM
50 mg, Patient 004 Dose 50 mg, 4 hr, read-out: Concentration
  concentration at 4 hr: 19.3 µM
50 mg, Patient 004 Dose 50 mg, 24 hr (Day 2), read-out: Concentration
  concentration at 24 hr: 14.4 µM
[1]
  concentration at 168 h: 12.8 µM
  concentration at 170 h: 35.7 µM
  concentration at 171 h: 40.4 µM
  concentration at 172 h: 36 µM
50 mg, Patient 004 Dose 50 mg, 192 hr (Day 9), read-out: Concentration
  concentration at 192 h: 22.5 µM
50 mg, Patient 004 Dose 50 mg, 336 hr (Day 15), read-out: Concentration
  concentration at 336 hr: 21.8 µM
50 mg, Patient 004 Dose 50 mg, 338 hr, read-out: Concentration
  concentration at 338 hr: 31.1 µM
50 mg, Patient 004 Dose 50 mg, 339 hr, read-out: Concentration
  concentration at 339 hr: 38.8 µM
50 mg, Patient 004 Dose 50 mg, 340 hr, read-out: Concentration
  concentration at 340 hr: 40.6 µM
50 mg, Patient 004 Dose 50 mg, 360 hr (Day 16), read-out: Concentration
  concentration at 360 hr: 38.8 µM
50 mg, Patient 004 Dose 50 mg, 504 hr (Day 22), read-out: Concentration
  concentration at 504 h: 33.4 µM
50 mg, Patient 004 Dose 50 mg, 506 hr, read-out: Concentration
  concentration at 506 h: 46.3 µM
50 mg, Patient 004 Dose 50 mg, 507 hr, read-out: Concentration
  concentration at 507 h: 50.4 µM
50 mg, Patient 004 Dose 50 mg, 508 hr, read-out: Concentration
  concentration at 508 h: 47.9 µM
50 mg, Patient 004 Dose 50 mg, 528 hr (Day 23), read-out: Concentration
  concentration at 528 h: 50 µM
50 mg, Patient 004 Dose 50 mg, 672 hr (Day 29), read-out: Concentration
  concentration at 672 hr: 52.3 µM
50 mg, Patient 004 Dose 50 mg, 674 hr, read-out: Concentration
  concentration at 674 hr: 65.8 µM
50 mg, Patient 004 Dose 50 mg, 675 hr, read-out: Concentration
  concentration at 675 hr: 61.7 µM
50 mg, Patient 004 Dose 50 mg, 676 hr, read-out: Concentration
  concentration at 676 hr: 56.7 µM
50 mg, Patient 004 Dose 50 mg, 696 hr (Day 30), read-out: Concentration
  concentration at 696 hr: 77.5 µM
50 mg, Patient 004 Dose 50 mg, 840 hr (Day 36), read-out: Concentration
  concentration at 840 h: 63 µM
50 mg, Patient 004 Dose 50 mg, 842 hr, read-out: Concentration
  concentration at 842 h: 78.6 µM
50 mg, Patient 004 Dose 50 mg, 843 hr, read-out: Concentration
  concentration at 843 h: 80.5 µM
50 mg, Patient 004 Dose 50 mg, 864 hr (Day 37), read-out: Concentration
  concentration at 864 h: 81.1 µM
50 mg, after a single dose, 6 week sampling period, read-out: half-life of elimination
  half-life: > 42 days
100 mg, Patient 005 Dose 100 mg, 0 hr
  concentration at 0 h: 230 nM
100 mg, Patient 005 Dose 100 mg, 2 hr, read-out: Concentration
  concentration at 2 h: 19.8 µM
[2]
  concentration at 3 h: 23 µM
  concentration at 168 h: 19 µM
  concentration at 170 h: 42.9 µM
  concentration at 171 h: 50.8 µM
  concentration at 172 h: 45.7 µM
100 mg, Patient 005 Dose 100 mg, 4 hr, read-out: Concentration
  concentration at 4 h: 23.7 µM
100 mg, Patient 005 Dose 100 mg, 24 hr (Day 2), read-out: Concentration
  concentration at 24 h: 19.9 µM
100 mg, Patient 005 Dose 100 mg, 192 hr (Day 9), read-out: Concentration
  concentration at 192 h: 34.4 µM
100 mg, Patient 005 Dose 100 mg, 336 hr (Day 15), read-out: Concentration
  concentration at 336 h: 47.8 µM
100 mg, Patient 005 Dose 100 mg, 338 hr, read-out: Concentration
  concentration at 338 h: 80.2 µM
100 mg, Patient 005 Dose 100 mg, 339 hr, read-out: Concentration
  concentration at 339 h: 70.1 µM
100 mg, Patient 005 Dose 100 mg, 340 hr, read-out: Concentration
  concentration at 340 h: 53.9 µM
